From US20080280877A1, “Azetidines” (Pfizer Inc, priority 2007, published 2008) come the findings set out here.

The target of the experiment is T1, recombinant human EP-2 receptor (Homo sapiens, UniProt P43116).
T1 construct: cell line stably transfected with full length cDNA encoding human Prostaglandin E2 was established; expressed in transfected cells; host or cells: CHO (Chinese hamster ovary) cells, stably transfected
T1 sequence (P43116 whole entry): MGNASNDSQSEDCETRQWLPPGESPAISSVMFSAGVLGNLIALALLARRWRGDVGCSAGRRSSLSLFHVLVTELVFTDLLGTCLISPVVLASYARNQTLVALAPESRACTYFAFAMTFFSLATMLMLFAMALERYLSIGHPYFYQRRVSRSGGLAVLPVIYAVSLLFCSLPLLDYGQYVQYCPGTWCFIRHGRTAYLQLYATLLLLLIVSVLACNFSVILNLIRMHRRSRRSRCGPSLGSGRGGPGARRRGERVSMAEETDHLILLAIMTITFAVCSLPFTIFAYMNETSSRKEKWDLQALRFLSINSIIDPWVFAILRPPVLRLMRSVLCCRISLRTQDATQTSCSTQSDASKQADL
The experiment is described as follows: in vitro antagonist potency against recombinant human EP-2 receptor in CHO cells (cAMP, Protocol 1). In kind it is cell-based. The note with it: functional Ki by Cheng-Prusoff from IC50; CHO cells stimulated with PGE2 (5 nM); cAMP readout; read-out: EP2 Ki. The text has this:
1.0 Measurement of in vitro Antagonist Potency (IC50) of Compounds Against Recombinant Human Prostaglandin E2 Receptor in CHO Cells
The prostaglandin E2 (EP-2) receptor is Gs coupled and agonism of the receptor by PGE2 results in activation of intracellular adenylate cyclase enzymes that synthesise the second messenger signalling molecule, adenosine 3′,5′-cyclic monophosphate (cAMP). […] Decreases in cAMP levels following treatment of stimulated recombinant EP-2 cells with potential antagonist compounds were measured and potency (IC50) calculated as follows. A Chinese hamster ovary (CHO) cell line stably transfected with full length cDNA encoding human Prostaglandin E2 was established using standard molecular biology methods. Test compounds were dissolved in dimethyl sulphoxide (DMSO) at 4 mM. 11 point half log unit increment dilution series of test compound were prepared in DMSO then diluted 1 in 40 in a buffer comprised of phosphate buffered saline (PBS) and 0.05% pluronic F-127 surfactant. Freshly cultured cells at 80-90% confluence were harvested and re-suspended in 90% growth media/10% DMSO. The cells were frozen using a planar freezer and stored in frozen aliquots in cryovials in liquid nitrogen until the day of the experiment. A vial of cells was defrosted in a 37° C. water bath for 2 min, then transferred to 10 ml of Dulbecco's Modified Eagle's Medium (DMEM). The cells were then centrifuged for 5 min at 1000 g and the pellet re-suspended at 1,000,000 cells/ml in DMEM. 5,000 cells (5 ul) were added to 5 ul of the compound dilution series in a 384 well assay plate and pre-incubated for 30 min at 37° C. 5 ul of agonist (15 nM PGE2 in PBS to give 5 nM FAC) was added and plates further incubated for 90 min at 37° C. The relative cAMP concentration in each well was then measured using a ? -galactosidase enzyme fragment complementation method purchased in kit form as the Discoverx cAMP II kit from GE Healthcare, UK. […] Sigmoidal curves were fitted to plots of log10 inhibitor concentration vs. percent effect. IC50 estimates were determined as the concentration of test compound giving an effect half way between the bottom and top asymptotes of the sigmoidal dose response curve. Each experiment included an IC50 determination for the literature compound as a standard to track assay consistency and allow fair comparison between values obtained in different experiments. The EC50 of PGE2 is used in combination with the ligand concentration in the assay to determine Ki values for antagonist dose responses using the Cheng-Prusoff equation. Consequently an agonist dose response curve is carried out for each experiment using the same incubation as the antagonist plate.
As usually defined, the Ki is a measure of affinity in units of concentration, obtained from inhibition or displacement. Take `COc1ccc2cc(OCC3(C(=O)O)CN(C(=O)Nc4cccc(F)c4)C3)ccc2c1` [Example 63, 1-{[(3-Fluorophenyl)amino]carbonyl}-3-{[(6-methoxy-2-naphthyl)oxy]methyl}azetidine-3-carboxylic acid]: the inhibition constant (Ki) was found to be 50.6 nM. As for `COc1ccc2cc(OCC3(C(=O)O)CN(C(=O)Nc4cccc(Cl)c4)C3)ccc2c1` [Example 64], the Ki is 7.5 nM. Consider `COc1ccc2cc(OCC3(C(=O)O)CN(C(=O)Nc4ccc(F)cc4)C3)ccc2c1` [Example 65], for which the inhibition constant Ki is 55.6 nM. For the compound `COc1ccc2cc(OCC3(C(=O)O)CN(C(=O)Nc4ccccc4F)C3)ccc2c1` [Example 66], the inhibition constant (Ki) stood at 102 nM. In the case of `CCCOc1ccc(OCC2(C(=O)O)CN(C(=O)Nc3cccc(Cl)c3Cl)C2)cc1` [Example 67, 1-{[(2,3-Dichlorophenyl)amino]carbonyl}-3-[(4-propoxyphenoxy)methyl]azetidine-3-carboxylic acid], the inhibition constant Ki was 110 nM. Take `CSc1ccc(NC(=O)N2CC(COc3cccc(C)c3C)(C(=O)O)C2)cc1` [Example 68, 3-[(2,3-Dimethylphenoxy)methyl]-1-({[4-(methylthio)phenyl]amino}carbonyl)azetidine-3-carboxylic acid]: the Ki came to 603 nM. As for `CCCc1ccc(OCC2(C(=O)O)CN(C(=O)Nc3ccccc3CC)C2)cc1` [Example 69], the figure is 560 nM; as for `CCCOc1ccc(OCC2(C(=O)O)CN(C(=O)Nc3cc(C)cc(C)c3)C2)cc1` [Example 71], 587 nM. `CSc1ccc(NC(=O)N2CC(COc3ccc(C)c4c3CCC4)(C(=O)O)C2)cc1` [Example 72]: the Ki was found to be 748 nM.
